Experimental data from patent publication US20160257651A1, “NOVEL COMPOUND WITH ANTIBACTERIAL ACTIVITY” (priority 2013, published 2016).
Values after ≈ are worked out from the molar mass of the structure shown. Where two headings read alike, the source gives them in different places.

Legend:
E. faecalis NCTC12203 = assay: MIC against Enterococcus bacteria; format: cell-based; conditions: NCTC 12203 / VRE, E. faecalis NCTC12203, VRE, read-out: MIC
Experimental: (§1) Antibacterial activities of the compound J-131CP against Enterococcus bacteria (Enterococcus faecium and Enterococcus faecalis) were examined by the following methods.
(§2) The compound J-131CP and quinolones were prepared in the same manner as that of Test Example 1-1.
(§3) Cell suspensions were prepared in the same manner as that of Test Example 1-1 described in the section of measurement of MIC in Test Example 1-1, except that the Enterococcus bacterium strains mentioned in Table 8 were used instead of Staphylococcus aureus, and MICs of the compound J-131CP and quinolones as control were determined for the strains in the same manner as that of Test Example 1-1 described in the section of measurement of MIC in Test Example 1-1. In Table 8, the amino acid substitution mutations in QRDR of the strains are underlined.

E. faecium NCTC12204 = assay: MIC against Enterococcus bacteria; format: cell-based; conditions: NCTC 12204 / VRE, E. faecium NCTC12204, VRE, read-out: MIC
Experimental: as §1, §2, §3

E. faecalis 36-15747 = assay: MIC against Enterococcus bacteria; format: cell-based; conditions: 3615747, ParC 80Ile
Experimental: as §1, §2, §3

E. faecium RPR10 = assay: MIC against Enterococcus bacteria; format: cell-based; conditions: E. faecium RPR10, read-out: MIC
Experimental: as §1, §2, §3

E. faecalis NCTC12201 = assay: MIC against Enterococcus bacteria; format: cell-based; conditions: Enterococcus faecalis, NCTC 12201 / VRE, quinolone-susceptible, read-out: MIC
Experimental: as §1, §2, §3

S. aureus MS5952 = assay: MIC against stepwise QRDR mutants; format: cell-based; conditions: Staphylococcus aureus
From the text: (§4) In order to further verify that the action site of the compound J-131CP is gyrA, there were examined antibacterial activities against the MRSA, S. aureus MR5867, and stepwise-mutated strains (one-step mutant strain to three-step mutant strain) of S. aureus MR5867 in which mutation was introduced into QRDR, as well as the MSSA, S. aureus MS5952, and stepwise-mutated strains (one-step mutant strain to three-step mutant strain) of S. aureus MS5952 in which mutation was introduced into QRDR (those strains mentioned above are described in Antimicrob. Agents Chemother., 42(8), pp. 1917-1922, 1998) by the following methods. The strains used for this test example are available from the inventors of the present invention.
as §2
(§5) Then, the cell suspension was diluted 500 times with CAMHB mentioned above.
(§6) CAMHB containing each of the compound J-131CP and quinolones at each concentration was added to each well of a 96-well plate in a volume of 50 μL/well, the aforementioned cell suspension diluted 500 times was added to the well in a volume of 50 μL/well, and stationary culture was carried out overnight at 37° C. in the same manner as that of Test Example 1-1.

[1] = tested on: S. aureus MR5867 two-step mutant; assay: MIC against stepwise QRDR mutants; format: cell-based; conditions: Staphylococcus aureus
From the text: as §4, §2, §5, §6

[2] = tested on: S. aureus MR5867 three-step mutant; assay: MIC against stepwise QRDR mutants; format: cell-based; conditions: Staphylococcus aureus
From the text: as §4, §2, §5, §6

[3] = tested on: S. aureus MS5952 two-step mutant; assay: MIC against stepwise QRDR mutants; format: cell-based; conditions: Staphylococcus aureus
From the text: as §4, §2, §5, §6

[4] = tested on: S. aureus MS5952 three-step mutant; assay: MIC against stepwise QRDR mutants; format: cell-based; conditions: Staphylococcus aureus
From the text: as §4, §2, §5, §6

S. aureus MR5867 = assay: MIC against stepwise QRDR mutants; format: cell-based; conditions: Staphylococcus aureus
From the text: as §4, §2, §5, §6

E. faecium RPR2 = assay: MIC against Enterococcus bacteria; format: cell-based, Enterococcus faecium
Experimental: as §1, §2, §3

E. faecium NCTC12202 = assay: MIC against Enterococcus bacteria; format: cell-based, Enterococcus faecium; conditions: Enterococcus faecium, NCTC 12202 / VRE; E. faecium NCTC12202, VRE, quinolone-susceptible; read-out: MIC
Experimental: as §1, §2, §3

S. aureus Mu50 = assay: microbe, parasite or virus in culture; format: cell-based, Staphylococcus aureus; conditions: for MIC ratio (Mu50 MIC/FDA209P MIC): MIC for S. aureus Mu50 / MIC for S. aureus FDA209P; for MIC: S. aureus Mu50, quinolone-resistant MRSA, ParC S80F, GyrA S84L
Experimental: as §5

[5] = tested on: S. aureus FDA209P (ATCC 6538P); assay: microbe, parasite or virus in culture; format: cell-based, Staphylococcus aureus; conditions: Staphylococcus aureus, ATCC 6538P / FDA209P / MSSA, quinolone-susceptible MSSA, ParC 80S, GyrA 84S, read-out: MIC
Experimental: as §5

S. aureus Mu50 NR1-1 = assay: microbe, parasite or virus in culture; format: cell-based; conditions: Staphylococcus aureus, MU50NR11
Experimental: as §5

E. faecalis 36-15722 = assay: MIC against Enterococcus bacteria; format: cell-based, Enterococcus faecalis; conditions: Enterococcus faecalis, 3615722
Experimental: as §1, §2, §3

[6] = E. faecalis 36-15722, quinolone-resistant, ParC 80Ile, GyrA 84Ile, read-out: MIC

| SMILES | MIC (E. faecalis NCTC12203) | MIC (E. faecium NCTC12204) | MIC (E. faecalis 36-15747) | MIC (E. faecium RPR10) | MIC (E. faecalis NCTC12201) | MIC (S. aureus MS5952) | MIC [1] | MIC [2] | MIC [3] | MIC [4] | MIC (S. aureus MR5867) | MIC (E. faecium RPR2; Enterococcus faecium, RPR2) | MIC (E. faecium NCTC12202) | MIC ratio (Mu50 MIC/FDA209P MIC) (S. aureus Mu50) | MIC (S. aureus Mu50) | MIC (S. aureus Mu50; Staphylococcus aureus, MRSA) | MIC [5] | MIC (S. aureus Mu50 NR1-1) | MIC (E. faecalis 36-15722; [6]) | other results |
| --- | --- | --- | --- | --- | --- | --- | --- | --- | --- | --- | --- | --- | --- | --- | --- | --- | --- | --- | --- | --- |
| C[C@@H]1CN(c2c(F)c(N)c3c(=O)c(C(=O)O)cn(C4CC4)c3c2F)C[C@H](C)N1 [SPX, sparfloxacin] | 1 µg/mL (≈ 2.55 µM) | 1 µg/mL (≈ 2.55 µM) | 0.5 µg/mL (≈ 1.27 µM) | 0.13 µg/mL (≈ 0.331 µM) | 0.5 µg/mL (≈ 1.27 µM) | < 0.06 µg/mL | 8 µg/mL (≈ 20.4 µM) | 16 µg/mL (≈ 40.8 µM) | 16 µg/mL (≈ 40.8 µM) | 128 µg/mL (≈ 326 µM) | < 0.06 µg/mL | > 128 µg/mL | 0.25 µg/mL (≈ 0.637 µM) | ≧256 | 16 mg/L (≈ 40.8 µM) | 8 to 128 mg/L (≈ 20.4 to 326 µM) | ≤ 0.06 µg/mL | 0.25 µg/mL (≈ 0.637 µM) | 64 µg/mL (≈ 163 µM) | – |
| C[C@H]1COc2c(N3CCN(C)CC3)c(F)cc3c(=O)c(C(=O)O)cn1c23 [LVX, levofloxacin] | 2 µg/mL (≈ 5.53 µM) | 2 µg/mL (≈ 5.53 µM) | 2 µg/mL (≈ 5.53 µM) | 1 µg/mL (≈ 2.77 µM) | 1 µg/mL (≈ 2.77 µM) | 0.25 µg/mL (≈ 0.692 µM) | 8 µg/mL (≈ 22.1 µM) | 16 µg/mL (≈ 44.3 µM) | 4 µg/mL (≈ 11.1 µM) | 32 µg/mL (≈ 88.6 µM) | 0.125 µg/mL (≈ 0.346 µM) | > 128 µg/mL | 1 µg/mL (≈ 2.77 µM) | ≧128 | 8 mg/L (≈ 22.1 µM) | 8 to 128 mg/L (≈ 22.1 to 354 µM) | ≤ 0.06 µg/mL | 1 µg/mL (≈ 2.77 µM) | 36 µg/mL (≈ 99.6 µM) | MIC (E. faecium RPR2; E. faecium RPR2, quinolone-resistant, ParC 82Ile, GyrA 84Ile 88Lys): >128 µg/mL |
| O=C(O)c1cn(C2CC2)c2cc(N3CCNCC3)c(F)cc2c1=O [CIP, ciprofloxacin] | 4 µg/mL (≈ 12.1 µM) | 4 µg/mL (≈ 12.1 µM) | 2 µg/mL (≈ 6.04 µM) | – | – | 0.25 µg/mL (≈ 0.754 µM) | 32 µg/mL (≈ 96.6 µM) | 128 µg/mL (≈ 386 µM) | 8 µg/mL (≈ 24.1 µM) | 64 µg/mL (≈ 193 µM) | 0.25 µg/mL (≈ 0.754 µM) | > 128 µg/mL | 0.5 µg/mL (≈ 1.51 µM) | – | – | – | – | – | – | MIC (E. faecalis 36-15722): 64 µg/mL (≈ 193 µM) |
